Assay results taken from patent US6608082B1, “Treatment of erectile dysfunction using isoquinoline compound melanocortin receptor ligands” (Lion Bioscience AG, priority 1998, dated 2003).
Read-outs that look alike come from different tables or passages of the source.

Columns and labels:
[1] = target: T1, MCR-1 (Homo sapiens, UniProt Q01726); assay: Melanocortin receptor binding assay, competition with 125I-HP 467, HEK 293 cells expressing hMCR-1; details: inhibition of binding of 125I-HP 467, HEK 293 cells expressing MCR-1, read-out: MC-1 IC50
T1 construct: expressed in transfected cells; host or cells: HEK 293
Method in brief: (§1)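 Intact-cell competition binding, 2.5 hr at 37 °C, in PBS/10% calf serum/1 mM CaCl2; hMCR-4 cells at 4×10^3 per tube, hMCR-1 cells at 2×10^4 per tube. Filtration on BSA/CaCl2-soaked GF/B, cold 50 mM Tris pH 7.4 washes, scintillation count.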

[2] = target: T2, MCR-4 (Homo sapiens, UniProt P32245); assay: Melanocortin receptor binding assay, competition with 125I-HP 467, HEK 293 cells expressing hMCR-4; details: inhibition of binding of 125I-HP 467, HEK 293 cells expressing MCR-4; for IC50: read-out: MC-4 IC50
T2 construct: expressed in transfected cells; host or cells: HEK 293
Method in brief: as §1

T2 sequence (P32245 whole entry): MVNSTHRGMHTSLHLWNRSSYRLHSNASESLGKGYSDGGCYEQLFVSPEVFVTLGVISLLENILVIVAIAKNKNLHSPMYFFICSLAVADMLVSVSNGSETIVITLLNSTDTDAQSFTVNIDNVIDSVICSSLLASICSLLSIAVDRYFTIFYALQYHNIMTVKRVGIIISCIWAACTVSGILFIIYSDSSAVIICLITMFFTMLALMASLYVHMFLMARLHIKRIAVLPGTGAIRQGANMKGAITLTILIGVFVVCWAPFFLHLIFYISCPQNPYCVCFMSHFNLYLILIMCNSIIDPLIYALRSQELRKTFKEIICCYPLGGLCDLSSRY
T1 sequence (Q01726 whole entry): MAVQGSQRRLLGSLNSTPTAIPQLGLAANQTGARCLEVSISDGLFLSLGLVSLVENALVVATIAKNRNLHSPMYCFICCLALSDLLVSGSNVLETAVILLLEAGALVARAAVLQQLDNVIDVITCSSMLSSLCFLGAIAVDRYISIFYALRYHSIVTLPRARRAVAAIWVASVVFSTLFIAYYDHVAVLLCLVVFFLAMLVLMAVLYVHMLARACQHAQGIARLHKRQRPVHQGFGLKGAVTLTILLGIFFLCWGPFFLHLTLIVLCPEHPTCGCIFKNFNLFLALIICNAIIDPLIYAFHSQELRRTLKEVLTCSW

Structure (SMILES)	IC50 ([1]; TRG 2414 library) [µM]	IC50 ([2]; TRG 2414 library) [µM]	MC-4 IC50 ([2]; TRG 2414 library)	IC50 [1] [µM]	IC50 [2] [µM]
CCCOc1ccc(C2C(CNCCc3ccccc3OC)c3ccccc3CN2CCCCC(CN)NCCc2ccccc2)cc1 (centres unmarked) [TRG 2414-170]	1.77	7.34	–	–	–
CCCOc1ccc(C2C(CNCCc3ccccc3OC)c3ccccc3CN2CCCCC(CN)NCc2ccccc2)cc1 (centres unmarked) [TRG 2414-171]	1.1	4.8	–	–	–
CCCOc1ccc(C2C(CNCCc3ccccc3OC)c3ccccc3CN2CCCCC(CN)NCC(C)c2ccc(CC(C)C)cc2)cc1 (centres unmarked) [TRG 2414-172]	15.7	39.6	–	–	–
CCCOc1ccc(C2C(CNCCc3cccc(Cl)c3)c3ccccc3CN2CCCCC(N)CN)cc1 (centres unmarked) [TRG 2414-173]	1.96	4.22	–	–	–
CCCOc1ccc(C2C(CNCCc3cccc(Cl)c3)c3ccccc3CN2CCCCC(CN)NCc2ccccc2)cc1 (centres unmarked) [TRG 2414-175]	4.14	6.08	–	–	–
CCCOc1ccc(C2C(CNCCc3cccc(Cl)c3)c3ccccc3CN2CCCCC(CN)NCC(C)c2ccc(CC(C)C)cc2)cc1 (centres unmarked) [TRG 2414-176]	21.9	–	no fit	–	–
CCCOc1ccc(C2C(CNCc3cccc(OC)c3)c3ccccc3CN2CCCCC(CN)NCCc2ccccc2)cc1 (centres unmarked) [TRG 2414-178]	2.18	8.13	–	–	–
CCCOc1ccc(C2C(CNCc3cccc(OC)c3)c3ccccc3CN2CCCCC(CN)NCc2ccccc2)cc1 (centres unmarked) [TRG 2414-179]	0.998	5.48	–	–	–
CCCOc1ccc(C2C(CNCc3ccc(OC)cc3)c3ccccc3CN2CCCCC(N)CN)cc1 (centres unmarked) [TRG 2414-181]	0.468	6.83	–	–	–
CCCOc1ccc(C2C(CNCc3ccc(OC)cc3)c3ccccc3CN2CCCCC(CN)NCCc2ccccc2)cc1 (centres unmarked) [TRG 2414-182]	1.48	4.11	–	–	–
CCCOc1ccc(C2C(CNCc3ccc(OC)cc3)c3ccccc3CN2CCCCC(CN)NCc2ccccc2)cc1 (centres unmarked) [TRG 2414-183]	1.09	4.95	–	–	–
CCCOc1ccc(C2C(CNCc3ccc(OC)cc3)c3ccccc3CN2CCCCC(CN)NCC(C)c2ccc(CC(C)C)cc2)cc1 (centres unmarked) [TRG 2414-184]	17	27.9	–	–	–
CCCCNc1ccc(C2C(CO)c3ccccc3CN2CCCC(CN)NCCC2CCCCC2)cc1 (centres unmarked) [TRG 2415-1]	–	–	–	1.93	5.04
NCC(CCCN1Cc2ccccc2C(CO)C1c1ccc(O)cc1)NCCC1CCCCC1 (centres unmarked) [TRG 2415-2]	–	–	–	2.24	0.94
CCOc1ccc(C2C(CO)c3ccccc3CN2CCCC(CN)NCCC2CCCCC2)cc1 (centres unmarked) [TRG 2415-3]	–	–	–	1.44	2.38
CC(C)Oc1ccc(C2C(CO)c3ccccc3CN2CCCC(CN)NCCC2CCCCC2)cc1 (centres unmarked) [TRG 2415-5]	–	–	–	2.52	0.96
CCCCOc1ccc(C2C(CO)c3ccccc3CN2CCCC(CN)NCCC2CCCCC2)cc1 (centres unmarked) [TRG 2415-6]	–	–	–	2.39	5
CCc1ccc(C2C(CO)c3ccccc3CN2CCCC(CN)NCCC2CCCCC2)cc1 (centres unmarked) [TRG 2415-7]	–	–	–	4.8	2.13
CCCCCc1ccc(C2C(CO)c3ccccc3CN2CCCC(CN)NCCC2CCCCC2)cc1 (centres unmarked) [TRG 2415-8]	–	–	–	6.21	13.8
NCC(CCCN1Cc2ccccc2C(CN)C1c1ccc(O)cc1)NCCC1CCCCC1 (centres unmarked) [TRG 2415-9]	–	–	–	3	1.95
CCOc1ccc(C2C(CN)c3ccccc3CN2CCCC(CN)NCCC2CCCCC2)cc1 (centres unmarked) [TRG 2415-10]	–	–	–	0.46	1.76
CCCOc1ccc(C2C(CN)c3ccccc3CN2CCCC(CN)NCCC2CCCCC2)cc1 (centres unmarked) [TRG 2415-11]	–	–	–	0.441	1.52
CCCCOc1ccc(C2C(CN)c3ccccc3CN2CCCC(CN)NCCC2CCCCC2)cc1 (centres unmarked) [TRG 2415-12]	–	–	–	0.677	3.89
CCc1ccc(C2C(CN)c3ccccc3CN2CCCC(CN)NCCC2CCCCC2)cc1 (centres unmarked) [TRG 2415-13]	–	–	–	1.83	0.87
CCCCCc1ccc(C2C(CN)c3ccccc3CN2CCCC(CN)NCCC2CCCCC2)cc1 (centres unmarked) [TRG 2415-14]	–	–	–	1.69	9.39
